According to patent US8163805B2, “Small molecule antagonists of Bcl-2 family proteins” (The Regents of the University of Michigan, priority 2001, dated 2012):
Where two headings read alike, the source gives them in different places. Each block holds one molecule with its values, some of them ahead of it.

Legend:
[1] = tested on: androgen-independent prostate PC-3 xenograft; test: PC-3 xenograft, (−)-gossypol and radiation (Example 20); type: in vivo, nude mice; conditions: Table 15; mice treated with gossypol and/or radiation
Experimental: In this experiment, 60 male 5 to 6 week old NCI athymic NCr-nu/nu nude mice were inoculated in each flank with an injection of about 5×10^6 PC-3 cells. The best 40 xenograft recipients were used. Tumors averaged about 70 mm^3. (−)-Gossypol compounds were first dissolved in ethanol and diluted with sterile water within 5 min to a final ethanol concentration of 10% prior to each administration. Irradiated test animals were restrained, placed under the X-ray head, and covered with lead shields to ensure that the tumor area was exposed to radiation. All oral administrations of (−)-gossypol and 10% alcohol were given by gavage.
The 40 best xenograft mice were divided into experimental groups as follows: radiation only (Groups 1 and 2), 2 Gy administered 5 times/week for 3 weeks, and daily oral administration of 10% alcohol (as vehicle control); radiation plus gossypol (Groups 3 and 4), 2 Gy administered 5 times a week for 3 weeks, and 10 mg/kg of (−)-gossypol administered orally 5 times/week for 4 weeks (8 mice each Group); gossypol only (Groups 5 and 6), 10 mg/kg (−)-gossypol administered orally every day for 4 weeks (8 mice each Group); vehicle control (Groups 7 and 8), daily oral administration of 10% alcohol (8 mice each Group as vehicle control); large tumor animals (combination of Groups 9-12), tumors allowed to reach 500 mm^3.
Other remaining tumors in this group appear pale yellowish and soft as compared with that in control group with hard solid and reddish appearance, indicating tumor blood supply was inhibited.

[2] = tested on: MDA-MB-231 breast cancer cells; test: Annexin-V flow cytometry apoptosis, MDA-MB-231; type: cell-based, human; conditions: 24 hours
Experimental: Further tests using Annexin-V flow cytometry (FACS) assays were conducted to more quantitatively assess the ability of gossypol to induce apoptosis in MDA-MB-231 breast cancer cells. […] It was observed that 5.0 μM of gossypol induced 59% of the MDA-MB-231 cells to undergo apoptosis. While the present invention is not limited to a particular mechanism(s), it is contemplated that induction of apoptosis by gossypol is dose-dependent. At administrations of 10.0 and 20.0 μM, respectively, gossypol induced 74% and 96% of cancer cells, again respectively, to undergo apoptosis. MDA-MB-231 cells overexpress Bcl-2 and Bcl-XL.
In still further embodiments, the present invention used cell level detection of apoptotic events by flow cytometry. Cells that had undergone apoptotic events were detected by flow cytometry using a FACSCAN instrument (Becton Dickinson, Franklin Lakes, N.J.) with 488-nm laser line and analyzed using CELL QUEST software (Becton Dickinson, Franklin Lakes, N.J.). Phosphatidylserine exposed on the outside of the cells (one of the major characteristics of apoptosis) was determined by TACSTM Annexin V-FITC Kit (Trevigen, Gaithersburg, Md.). Annexin V-FITC fluorescence is detected in FL-1, and propidium iodide was detected in FL-2. (Hail Jr., and R. Lotan, R. Cancer Epidemiol. Biomarkers Prev., 9:1293-1301 (2000)).
Apoptosis was further detected and quantified using Annexin-V-fluorescence assays. […] Cells were collected and washed with PBS and stained with Annexin-V-Fluorescein and propidium iodide (PI) following standard protocols. Stained cells were analyzed with a flow cytometer (Becton Dickinson) using 488 nm excitation and a 515 nm bandpass filter for fluorenscein detection, and a >600 nm filter for PI detection.

MDA-MB-231 cells = test: 5 day MTT cell growth assay, MDA-MB-231; type: cell-based, human; conditions: Homo sapiens, MDA-MB-231, 120 h, read-out: IC50, inhibition of MDA-MB-231 cell growth
[3] = tested on: human breast cancer MDA-MB-231 (2LMP) xenograft
[4] = tested on: human breast cancer xenograft MDA-MB-231; conditions: for inhibition of tumor growth: three weeks, day 29
[5] = tested on: androgen independent prostate cancer PC-3 xenograft; test: PC-3 xenograft, (−)-gossypol alone and with docetaxel (Example 22); conditions: for weight loss: mice treated with gossypol
[6] = tested on: A549 non-small cell lung carcinoma xenograft; test: A549 non-small cell lung carcinoma xenograft, (−)-gossypol with paclitaxel; conditions: Table 13; mice treated with gossypol and/or Paclitaxel
PC-3 xenograft = conditions: Table 14; mice treated with gossypol and/or radiation
Bcl-XL [7] = target: T1, Bcl-XL (Homo sapiens, UniProt Q07817, DEL45-84); test: FP binding assay, Flu-Bak-BH3 16-mer tracer and His-fused Bcl-XL; conditions: FIG. 3, 6A, 6B
T1 construct: His-tag (N); made in house
T1 sequence (Q07817 with tags, fused parts or gaps DEL45-84 limits assumed): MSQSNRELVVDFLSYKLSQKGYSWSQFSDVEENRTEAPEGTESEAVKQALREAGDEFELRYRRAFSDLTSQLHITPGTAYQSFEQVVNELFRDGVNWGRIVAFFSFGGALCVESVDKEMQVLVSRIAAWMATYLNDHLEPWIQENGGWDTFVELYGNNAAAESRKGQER

[8] = Elimination half-life in humans; type: in vivo
Source text: In some embodiments, the present invention contemplates that the longer residency of the (+)-gossypol enantiomer is potentially beneficial in certain prolonged gossypol treatments methods. Therefore, in some embodiments, the (+)-gossypol enantiomer is potentially more toxic to cells. […]

Bcl-2 = target: T2, Bcl-2 (Homo sapiens, UniProt P10415); test: FP binding assay, Flu-Bad-25 peptide and GST-fusion Bcl-2 (FIG. 4, 45)
T2 construct: purchased Santa Cruz Biotechnology
T2 sequence (P10415 1-205 limits assumed): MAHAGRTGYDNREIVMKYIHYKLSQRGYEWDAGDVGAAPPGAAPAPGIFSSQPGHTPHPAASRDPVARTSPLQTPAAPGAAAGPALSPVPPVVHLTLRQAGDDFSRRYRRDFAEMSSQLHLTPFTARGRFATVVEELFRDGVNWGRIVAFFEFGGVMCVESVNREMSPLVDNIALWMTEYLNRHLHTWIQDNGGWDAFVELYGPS

Bcl-XL [9] = target: T1, Bcl-XL; test: FP binding assay, Flu-Bid 21-residue peptide and Bcl-XL (FIG. 5, 46)
Bcl-XL [10] = target: T1, Bcl-XL; test: 15N HSQC NMR binding to Bcl-XL
[11] = tested on: MCF-7 breast cancer cell line; test: Growth inhibition with TAXOL in fixed ratio, MCF-7; type: cell-based, human; conditions: combinations in a fixed ratio to TAXOL
[12] = Table 8, docetaxel 7.5 mg/kg i.v. q week for 3 weeks, alone

SMILES: Cc1cc2c(C(C)C)c(O)c(O)c(C=O)c2c(O)c1-c1c(C)cc2c(C(C)C)c(O)c(O)c(C=O)c2c1O (racemic) [gossypol]
- weight loss [1]: There was no significant weight loss
- cells induced to undergo apoptosis ([2]; 5.0 μM): 59%
- cells induced to undergo apoptosis ([2]; 10.0 μM): 74%
- cells induced to undergo apoptosis ([2]; 20.0 μM): 96%
- IC50 (MDA-MB-231 cells): 2000 nM
- weight loss or death ([3]; Table 8, mice treated with gossypol): There was no weight loss or death in
- inhibition of tumor growth ([4]; 30 mg/kg oral daily): more than 70%
- inhibition of tumor growth ([4]; 90 mg/kg oral daily): more than 70%
- weight loss or deaths ([4]; 30 and 90 mg/kg oral daily): No weight loss or deaths
- tumor growth inhibition on day 42 ([5]; Table 9, PC-3 flank xenografts (~100 mm^3 at start), NCr-nu nude mouse, 15 mg/kg daily p.o., alone): (15.6% on day 42). The (−)-gossypol
- weight loss ([5]; Table 9): There was no weight loss in mice
- tumor growth inhibition on day 56 compared to vehicle controls ([5]; Table 10, PC-3 flank xenografts (~120 mm^3 at start), NCr-nu nude mouse, daily p.o. for 28 days, alone (racemic 15 mg/kg)): (39% on day 56, p = 0.145) compared
- weight loss ([5]; Table 10): There was no weight loss in mice
- weight loss [6]: There was no weight loss in mice
- weight loss (PC-3 xenograft): There was no significant weight loss

SMILES: CC1=C(C2=C(C)C(=O)c3c(c(C=O)c(O)c(O)c3C(C)C)C2=O)C(=O)c2c(C=O)c(O)c(O)c(C(C)C)c2C1=O (racemic) [gossypolone]
- inhibition of binding between Bak BH3 peptide and Bcl-XL (Bcl-XL [7]): competitive inhibition of Bak BH3 peptide binding to Bcl-XL protein

SMILES: Cc1cc2c(C(C)C)c(O)c(O)c(C=O)c2c(O)c1-c1c(C)cc2c(C(C)C)c(O)c(O)c(C=O)c2c1O [(+)-gossypol]
- T1/2 of elimination relative to (−)-gossypol [8]: 29 times
- inhibition of binding between Bid BH3 peptide and Bcl-2 (Bcl-2; FIG. 4): directly inhibit binding between Bid BH3 peptide and Bcl-2
- inhibition of binding between Bad BH3 peptide and Bcl-XL (Bcl-XL [9]): directly inhibit binding between Bad BH3 peptide and Bcl-XL
- binding to Bcl-XL by NMR (Bcl-XL [10]): bind to the BH3 binding groove in Bcl-XL
- IC50 [11]: 22900 nM

SMILES: CCN=Cc1c(O)c(O)c(C(C)C)c2cc(C)c(-c3c(C)cc4c(C(C)C)c(O)c(O)c(C=NCC)c4c3O)c(O)c12 [(−)-gossypol ethyl Schiff's base]
- inhibition of binding between Bak BH3 peptide and Bcl-XL (Bcl-XL [7]): time-dependent inhibition

- Kd (Bcl-2; FIG. 26): 6.9 nM
SMILES: CSCC[C@H](NC(=O)[C@H](CCCNC(=N)N)NC(=O)[C@H](CCCNC(=N)N)NC(=O)[C@H](CC(C)C)NC(=O)[C@H](CCC(=O)O)NC(=O)[C@H](CCCNC(=N)N)NC(=O)CNC(=O)[C@H](Cc1ccc(O)cc1)NC(=O)[C@H](CCCNC(=N)N)NC(=O)[C@H](CCC(N)=O)NC(=O)[C@H](C)NC(=O)[C@H](C)NC(=O)[C@H](Cc1c[nH]c2ccccc12)NC(=O)[C@H](CC(C)C)NC(=O)[C@H](CC(N)=O)NC(=O)c1ccc2c(c1)C1(OC2=O)c2ccc(O)cc2Oc2cc(O)ccc21)C(=O)N[C@@H](CO)C(=O)N[C@@H](CC(=O)O)C(=O)N[C@@H](CCC(=O)O)C(=O)N[C@@H](Cc1ccccc1)C(=O)N[C@H](C(=O)N[C@@H](CC(=O)O)C(=O)N[C@@H](CO)C(=O)N[C@@H](Cc1ccccc1)C(=O)N[C@@H](CCCCN)C(=O)N[C@@H](CCCCN)C(=O)O)C(C)C [Bad 25-mer BH3 peptide, reference compound]

SMILES: CC(=O)O[C@@]12CO[C@@H]1C[C@H](O)[C@@]1(C)C(=O)[C@H](O)C3=C(C)[C@@H](OC(=O)[C@H](O)[C@@H](NC(=O)OC(C)(C)C)c4ccccc4)C[C@@](O)([C@@H](OC(=O)c4ccccc4)[C@H]21)C3(C)C [Docetaxel, docetaxel, reference compound]
- tumor growth inhibition [3, 12]: achieved about 70% tumor growth
- tumors grew back, time after treatment stopped [3, 12]: back 2-3 weeks after treatment
- tumor growth in second round of treatment ([3]; second round from day 45, tumors about 2,000 mm^3): continued to grow
